Assay results from patent publication US9970947B2, “Fluorescent probe” (MUSC FOUNDATION FOR RESEARCH DEVELOPMENT, priority 2016, dated 2018).
“Also recorded” adds a separate entry of the source.

Columns and labels:
[1] = system: mitochondria of cultured rat hepatocytes; assay: Mitochondrial accumulation and retention of probe after depolarization, confocal imaging; assay type: cell-based; conditions: for retention by mitochondria after depolarization: rat hepatocytes, CCCP 10 μM, oligomycin 10 μg/ml, myxothiazol 10 μM
Description: (§1) Rhodamine 123 (Rh123) and MitoTracker Green (MTG) were obtained from Molecular Probes. Primary rat hepatocytes were isolated from overnight-fasted male Sprague-Dawley rats (200-250 g) by collagenase perfusion. Hepatocytes were plated on Type 1 collagen-coated MatTek dishes at a density of 300,000 cells per well and cultured overnight in Waymouth's MB-742/1 growth medium containing 27 mM NaHCO3, 2 mM L-glutamine, 10% fetal calf serum, 100 nM insulin and 10 nM dexamethasone, pH 7.4 at 37° C. in 5% CO2/air.
(§2) Confocal images of hepatocytes were taken with a Zeiss LSM 510 inverted laser scanning confocal microscope (Carl Zeiss, Germany) using a 63×oil immersion objective.
Overnight-cultured rat hepatocytes were loaded with MFF (1 μM for 20 min), washed and incubated for 60 min.
Overnight-cultured rat hepatocytes were loaded with MFF and MTG (both 1 μM for 20 min), washed and incubated for 60 min. Cells were then incubated with 5 mM fructose and imaged “BEFORE” and “AFTER” addition of CCCP, oligomycin and myxothiazol. […] MFF fluorescence changed essentially identically to MTG consistent with covalent labeling of mitochondrial proteins by MFF.

[2] = system: mitochondrial chelatable Fe^2+ in cultured rat hepatocytes; assay: Mitoferrofluor quenching after mitochondrial Fe2+ uptake; assay type: cell-based
Description: as §1, §2
Overnight-cultured rat hepatocytes were loaded with MFF (1 μM for 20 min), washed out and incubated for 60 min. Rh123 (0.5 μM for 20 min) was then loaded. Fe^2+ was added as ferrous ammonium sulfate (10 mM). Fe^2+ addition quenched MFF fluorescence by ˜72%.

[3] = Cell-free MFF fluorescence as a function of Fe2+ concentration; assay type: physicochemical
Description: (§3) MFF (0-10 μM) was dissolved in medium at the presumed intramitochondrial pH (pH 8.0, 37° C.) (FIG. 2, left panel). Fluorescence of MFF (1 μM) was measured as a function of increasing ferrous ammonium sulfate (Fe^2+) and ferric chloride (Fe^3+) concentration from freshly prepared stock solutions (1 mM). Fluorescence intensity is shown in arbitrary units (a.u.). (FIG. 2, right panel).

[4] = Cell-free MFF fluorescence as a function of Fe3+ concentration; assay type: physicochemical; conditions: cell free medium
Description: as §3

[5] = system: mitochondrial chelatable Fe^2+ in cultured rat hepatocytes; assay: Mitoferrofluor fluorescence quenching after lysosomal iron release with bafilomycin A1; assay type: cell-based; conditions: 120 min after bafilomycin A1, vs vehicle (DMSO)
Description: as §1, §2
Overnight-cultured rat hepatocytes were loaded with MFF and then rhodamine 123, as described in Example 6. […] Panel C represents a quantitative analysis of 10 random fields (*p<0.05 vs vehicle, n=3).

[6] = Absorption, excitation and emission spectra of mitoferrofluor; assay type: physicochemical

IC50 ([3]; MFF 1 μM, pH 8.0, 37° C., read-out: IC50 of Fe^2+ quenching of MFF fluorescence)	fluorescence emission peak [6]	fluorescence excitation peak [6]	extinction coefficient ([6]; at 566 nm)	Compound	retention by mitochondria after depolarization [1]	decrease of intramitochondrial MFF fluorescence ([2]; MFF-loaded hepatocytes, excess extracellular Fe^2+ added)	quenching of MFF fluorescence by Fe^2+ addition ([2]; rat hepatocytes, MFF 1 μM for 20 min, ferrous ammonium sulfate 10 mM)	quenching of MFF fluorescence by Fe^2+ ([3]; cell free medium)	quenching of MFF fluorescence by Fe^3+ [4]	accumulation into mitochondria ([1]; cultured rat hepatocytes)	quenching of mitochondrial MFF fluorescence after bafilomycin A1 [5]
				CN1/C(=C/C=C/c2n(Cc3ccc(CCl)cc3)c3cc(Cl)c(Cl)cc3[n+]2Cc2ccc(CCl)cc2)Oc2ccccc21 [MTG, reference compound]	some release of MTG into the cytosol						
1 to 2 µM	598 nm	554 nm	40,400 cm^−1/M	CCN(CC)c1ccc2c(-c3ccccc3C(=O)OCCCOc3cc(OCCCBr)cc(C(=O)Nc4cc5cccnc5c5ncccc45)c3)c3ccc(=[N+](CC)CC)cc-3oc2c1.[Br-] [MFF, N-(9-(2-((3-(3-((1,10-phenanthrolin-5-yl)carbamoyl)-5-(3-bromopropoxy)phenoxy)propoxy)carbonyl)phenyl)-6-(diethylamino)-3H-xanthen-3-ylidene)-N-ethylethanaminium bromide]	retained by mitochondria; also recorded: MFF fluorescence was retained; also recorded: retained MFF to the same extent as MTG	~80%	~72%	strongly and stoichiometrically quenched by Fe^2+	not by Fe^3+; also recorded: not Fe^3+ quenched	selectively accumulated into mitochondria	became quenched; also recorded: quenched mitochondrial MFF fluorescence
